This note sets out measurements from patent US9364448B2, “Nitisinone for treatment of oculocutaneous/ocular albinism and for increasing pigmentation” (The United States of America, as represented by the …, priority 2010, dated 2016).

Entries after “also recorded” stand apart in the source; their conditions may differ.

The assay has as its system C57BL/6J-Tyr^c-2J/c-2J mice (OCA1a model). Description: Coat and ocular pigmentation, clinical examination, Tyr^c-2J/c-2J mice. It is filed as in vivo, mouse. The conditions noted are these: one month. As for the experimental part:
Animal Husbandry and Clinical Examination. C57BL/6J mice (Stock #000664), C57BL/6JTyr^c-2J/c-2J mice (Stock #000058, MGI ID#1855985), and C57BL/6Tyr^c-h/c-h (Stock #000104, MGI ID#1855979) were obtained from the Jackson Laboratory (Bar Harbor, Me.). Mice were housed according to the institutional Animal Review Board standards with a 14 hour light/10 hour dark cycle. These studies conformed to the principles for laboratory animal research outlined by the Animal Welfare Act (NIH/HHS) and the ARVO Statement for the Use of Animals in Ophthalmic and Vision Research and were approved by the Institutional Animal Care and Use Committee of the National Eye Institute. Clinical examination and imaging of the anterior segment of mice were performed on gently-restrained, awake mice using a Haag-Streit BQ slit lamp and Imaging Module IM900® software (Haag-Streit, Inc., Mason, Ohio). […]
At the beginning of the study, baseline plasma concentrations of tyrosine, coat color (gross and microscopic), anterior segment pigment, and posterior segment pigment were documented for each mouse prior to initiating experiments. […] It is known that a possible side effect of NTBC treatment is corneal irritation, which is monitored daily. […] At the end of four weeks time, plasma tyrosine concentrations were assessed in both treated and control animals. […]

Regarding `O=C1CCCC(=O)C1C(=O)c1ccc(C(F)(F)F)cc1[N+](=O)[O-]` [NTBC, 2-(-2-nitro-4 trifluoromethylbenzoyl)-1,3 cyclohexanedione], for the setting “1 mg/kg every other day by oral gavage”, the Phenotypic changes entry is reported as “no phenotypic changes”. Also, the “Coat color, fundus pigmentation, iris transillumination (coat and ocular pigmentation)” value (4 mg/kg orally every other day, 4 mg/kg) is reported as “no difference; also recorded: grossly unchanged”.
